Where “and” joins values, the source holds several entries; their conditions need not be identical. Equal entries are not always repeated. Inconclusive results and toxic doses are left out. How the source made its calls: active means survival T/C of 150% or more; inactive means T/C below 125% in these data.
Tested on: CD2F1 mice, L1210 leukemia ip, survival T/C
Test: NCI In Vivo Anticancer Drug Screen. Data for tumor model L1210 Leukemia (intraperitoneal) in CD2F1 (CDF1) mice
Details: endpoint: mean survival time, higher = longer survival
Method in brief: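 Ratio T/C, where T is the treated-group value and C the vehicle-dosed control value, from mice implanted with a transplantable tumor.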

[1] = dose: 25.0 mg/kg/injection, schedule: Q01DX009 (ip), vehicle: saline with Tween-80
[2] = dose: 50.0 mg/kg/injection, schedule: Q01DX009 (ip), vehicle: saline with Tween-80
[3] = dose: 100.0 mg/kg/injection, schedule: Q01DX009 (ip), vehicle: saline with Tween-80
[4] = dose: 100.0 mg/kg/injection, schedule: Q01DX001 (ip), vehicle: saline with Tween-80
[5] = dose: 200.0 mg/kg/injection, schedule: Q01DX001 (ip), vehicle: saline with Tween-80
[6] = dose: 200.0 mg/kg/injection, schedule: Q01DX009 (ip), vehicle: saline with Tween-80
[7] = dose: 400.0 mg/kg/injection, schedule: Q01DX009 (ip), vehicle: saline with Tween-80

Measured: T/C

C=CCCCC[P+](c1ccccc1)(c1ccccc1)c1ccccc1
inactive: dose: 3.0 mg/kg/injection, schedule: Q01DX015 (ip), vehicle: saline 97 % of control | dose: 12.0 mg/kg/injection, schedule: Q01DX015 (ip), vehicle: saline 100 % of control | dose: 24.0 mg/kg/injection, schedule: Q01DX015 (ip), vehicle: saline 97 % of control

C[n+]1c(/C=C\c2ccc(Cl)cc2)ccc2ccccc21
inactive: dose: 3.13 mg/kg/injection, schedule: Q01DX009 (ip), vehicle: saline with Tween-80 96 % of control | dose: 6.25 mg/kg/injection, schedule: Q01DX009 (ip), vehicle: saline with Tween-80 98 % of control | dose: 6.25 mg/kg/injection, schedule: Q04DX003 (ip), vehicle: saline with Tween-80 98 % of control | dose: 12.5 mg/kg/injection, schedule: Q04DX003 (ip), vehicle: saline with Tween-80 90 % of control

NNC(=O)COc1ccc(Cl)cc1Cl
inactive: [1] 102 % of control | [2] 105 % of control | [3] 104 % of control

O=C(O)CCC(C(=O)O)c1ccccc1 (centres undefined)
inactive: dose: 75.0 mg/kg/injection, schedule: Q01DX001 (ip), vehicle: saline 98 % of control | dose: 150.0 mg/kg/injection, schedule: Q01DX001 (ip), vehicle: saline 101 % of control | dose: 300.0 mg/kg/injection, schedule: Q01DX001 (ip), vehicle: saline 104 % of control

CCOC(/C=C/c1ccccc1)OCC
inactive: dose: 100.0 mg/kg/injection, schedule: Q01DX009 (ip), vehicle: saline 100 % of control | dose: 200.0 mg/kg/injection, schedule: Q01DX009 (ip), vehicle: saline 94 % of control | dose: 400.0 mg/kg/injection, schedule: Q01DX009 (ip), vehicle: saline 103 % of control

CC(C)c1ccc2ccccc2c1
inactive: dose: 100.0 mg/kg/injection, schedule: Q04DX003 (ip), vehicle: saline with Tween-80 91 % of control | dose: 200.0 mg/kg/injection, schedule: Q04DX003 (ip), vehicle: saline with Tween-80 87 % of control | dose: 400.0 mg/kg/injection, schedule: Q04DX003 (ip), vehicle: saline with Tween-80 86 % of control

Cn1cnc([N+](=O)[O-])c1[Se]c1nc(N)nc2c1ncn2C1OC(CO)C(O)C1O (centres undefined)
active: dose: 12.5 mg/kg/injection, schedule: Q01DX005 (ip), vehicle: saline 166 % of control | dose: 25.0 mg/kg/injection, schedule: Q01DX005 (ip), vehicle: saline 175 % of control | dose: 50.0 mg/kg/injection, schedule: Q01DX005 (ip), vehicle: saline 176 % of control
inactive: dose: 2.0 mg/kg/injection, schedule: Q01DX009 (ip), vehicle: distilled water + Tween-80 114 % of control | dose: 4.0 mg/kg/injection, schedule: Q01DX009 (ip), vehicle: distilled water + Tween-80 112 % of control | dose: 8.0 mg/kg/injection, schedule: Q01DX009 (ip), vehicle: distilled water + Tween-80 108 % of control and 110 % of control | dose: 64.0 mg/kg/injection, schedule: Q01DX009 (ip), vehicle: distilled water + Tween-80 98 % of control

NC1=NC(=O)CC(=O)N1
inactive: [4] 102 % of control | [5] 103 % of control

CC12NC(=O)NC1(C)NC(=O)N2 (centres undefined)
inactive: [3] 95 % of control | [6] 101 % of control | [7] 86 % of control

C1=C(c2ccccc2)N(c2ccccc2)N=C(c2ccccc2)C1
inactive: [4] 94 % of control | [5] 94 % of control | dose: 400.0 mg/kg/injection, schedule: Q01DX001 (ip), vehicle: saline with Tween-80 98 % of control

Nc1ccc(NC(=S)Nc2ccc(N)cc2)cc1
inactive: dose: 25.0 mg/kg/injection, schedule: Q04DX003 (ip), vehicle: Klucel (hydroxypropylcellulose) (HPC) 104 % of control | dose: 50.0 mg/kg/injection, schedule: Q04DX003 (ip), vehicle: Klucel (hydroxypropylcellulose) (HPC) 106 % of control | dose: 100.0 mg/kg/injection, schedule: Q04DX003 (ip), vehicle: Klucel (hydroxypropylcellulose) (HPC) 98 % of control

CCOC(=O)CC(=O)c1ccc(C)cc1
inactive: [3] 96 % of control | [6] 105 % of control | [7] 89 % of control

C1CCc2nnnn2CC1
inactive: dose: 12.5 mg/kg/injection, schedule: Q01DX009 (ip), vehicle: saline 98 % of control | dose: 25.0 mg/kg/injection, schedule: Q01DX009 (ip), vehicle: saline 103 % of control | dose: 50.0 mg/kg/injection, schedule: Q01DX009 (ip), vehicle: saline 95 % of control

CCC(=O)c1ccc(O)c(O)c1
inactive: [1] 95 % of control | [2] 96 % of control | [3] 96 % of control and 100 % of control | dose: 100.0 mg/kg/injection, schedule: Q04DX003 (ip), vehicle: saline 96 % of control | dose: 200.0 mg/kg/injection, schedule: Q04DX003 (ip), vehicle: saline 105 % of control | dose: 400.0 mg/kg/injection, schedule: Q04DX003 (ip), vehicle: saline 92 % of control

Source: PubChem BioAssay AID256 (DTP/NCI, 2004)
